In ChEMBL document CHEMBL2157945, “Identification of pyrimidine derivatives as hSMG-1 inhibitors” (Bioorg Med Chem Lett, 2012) one finds IC50, Ratio IC50 and inhibition data, which are given here for 27 compounds.

Active and inactive are the calls of the source. The calls are words filed in the database; no cut-off is given here.

In test [1] the target is T1, Serine/threonine-protein kinase SMG1 (Homo sapiens, UniProt Q96Q15). Briefly: Inhibition of human recombinant SMG1 expressed in HEK293 cells using GST-tagged p53 as substrate after 1 hr by DELFIA assay.
T1 sequence (Q96Q15 whole entry): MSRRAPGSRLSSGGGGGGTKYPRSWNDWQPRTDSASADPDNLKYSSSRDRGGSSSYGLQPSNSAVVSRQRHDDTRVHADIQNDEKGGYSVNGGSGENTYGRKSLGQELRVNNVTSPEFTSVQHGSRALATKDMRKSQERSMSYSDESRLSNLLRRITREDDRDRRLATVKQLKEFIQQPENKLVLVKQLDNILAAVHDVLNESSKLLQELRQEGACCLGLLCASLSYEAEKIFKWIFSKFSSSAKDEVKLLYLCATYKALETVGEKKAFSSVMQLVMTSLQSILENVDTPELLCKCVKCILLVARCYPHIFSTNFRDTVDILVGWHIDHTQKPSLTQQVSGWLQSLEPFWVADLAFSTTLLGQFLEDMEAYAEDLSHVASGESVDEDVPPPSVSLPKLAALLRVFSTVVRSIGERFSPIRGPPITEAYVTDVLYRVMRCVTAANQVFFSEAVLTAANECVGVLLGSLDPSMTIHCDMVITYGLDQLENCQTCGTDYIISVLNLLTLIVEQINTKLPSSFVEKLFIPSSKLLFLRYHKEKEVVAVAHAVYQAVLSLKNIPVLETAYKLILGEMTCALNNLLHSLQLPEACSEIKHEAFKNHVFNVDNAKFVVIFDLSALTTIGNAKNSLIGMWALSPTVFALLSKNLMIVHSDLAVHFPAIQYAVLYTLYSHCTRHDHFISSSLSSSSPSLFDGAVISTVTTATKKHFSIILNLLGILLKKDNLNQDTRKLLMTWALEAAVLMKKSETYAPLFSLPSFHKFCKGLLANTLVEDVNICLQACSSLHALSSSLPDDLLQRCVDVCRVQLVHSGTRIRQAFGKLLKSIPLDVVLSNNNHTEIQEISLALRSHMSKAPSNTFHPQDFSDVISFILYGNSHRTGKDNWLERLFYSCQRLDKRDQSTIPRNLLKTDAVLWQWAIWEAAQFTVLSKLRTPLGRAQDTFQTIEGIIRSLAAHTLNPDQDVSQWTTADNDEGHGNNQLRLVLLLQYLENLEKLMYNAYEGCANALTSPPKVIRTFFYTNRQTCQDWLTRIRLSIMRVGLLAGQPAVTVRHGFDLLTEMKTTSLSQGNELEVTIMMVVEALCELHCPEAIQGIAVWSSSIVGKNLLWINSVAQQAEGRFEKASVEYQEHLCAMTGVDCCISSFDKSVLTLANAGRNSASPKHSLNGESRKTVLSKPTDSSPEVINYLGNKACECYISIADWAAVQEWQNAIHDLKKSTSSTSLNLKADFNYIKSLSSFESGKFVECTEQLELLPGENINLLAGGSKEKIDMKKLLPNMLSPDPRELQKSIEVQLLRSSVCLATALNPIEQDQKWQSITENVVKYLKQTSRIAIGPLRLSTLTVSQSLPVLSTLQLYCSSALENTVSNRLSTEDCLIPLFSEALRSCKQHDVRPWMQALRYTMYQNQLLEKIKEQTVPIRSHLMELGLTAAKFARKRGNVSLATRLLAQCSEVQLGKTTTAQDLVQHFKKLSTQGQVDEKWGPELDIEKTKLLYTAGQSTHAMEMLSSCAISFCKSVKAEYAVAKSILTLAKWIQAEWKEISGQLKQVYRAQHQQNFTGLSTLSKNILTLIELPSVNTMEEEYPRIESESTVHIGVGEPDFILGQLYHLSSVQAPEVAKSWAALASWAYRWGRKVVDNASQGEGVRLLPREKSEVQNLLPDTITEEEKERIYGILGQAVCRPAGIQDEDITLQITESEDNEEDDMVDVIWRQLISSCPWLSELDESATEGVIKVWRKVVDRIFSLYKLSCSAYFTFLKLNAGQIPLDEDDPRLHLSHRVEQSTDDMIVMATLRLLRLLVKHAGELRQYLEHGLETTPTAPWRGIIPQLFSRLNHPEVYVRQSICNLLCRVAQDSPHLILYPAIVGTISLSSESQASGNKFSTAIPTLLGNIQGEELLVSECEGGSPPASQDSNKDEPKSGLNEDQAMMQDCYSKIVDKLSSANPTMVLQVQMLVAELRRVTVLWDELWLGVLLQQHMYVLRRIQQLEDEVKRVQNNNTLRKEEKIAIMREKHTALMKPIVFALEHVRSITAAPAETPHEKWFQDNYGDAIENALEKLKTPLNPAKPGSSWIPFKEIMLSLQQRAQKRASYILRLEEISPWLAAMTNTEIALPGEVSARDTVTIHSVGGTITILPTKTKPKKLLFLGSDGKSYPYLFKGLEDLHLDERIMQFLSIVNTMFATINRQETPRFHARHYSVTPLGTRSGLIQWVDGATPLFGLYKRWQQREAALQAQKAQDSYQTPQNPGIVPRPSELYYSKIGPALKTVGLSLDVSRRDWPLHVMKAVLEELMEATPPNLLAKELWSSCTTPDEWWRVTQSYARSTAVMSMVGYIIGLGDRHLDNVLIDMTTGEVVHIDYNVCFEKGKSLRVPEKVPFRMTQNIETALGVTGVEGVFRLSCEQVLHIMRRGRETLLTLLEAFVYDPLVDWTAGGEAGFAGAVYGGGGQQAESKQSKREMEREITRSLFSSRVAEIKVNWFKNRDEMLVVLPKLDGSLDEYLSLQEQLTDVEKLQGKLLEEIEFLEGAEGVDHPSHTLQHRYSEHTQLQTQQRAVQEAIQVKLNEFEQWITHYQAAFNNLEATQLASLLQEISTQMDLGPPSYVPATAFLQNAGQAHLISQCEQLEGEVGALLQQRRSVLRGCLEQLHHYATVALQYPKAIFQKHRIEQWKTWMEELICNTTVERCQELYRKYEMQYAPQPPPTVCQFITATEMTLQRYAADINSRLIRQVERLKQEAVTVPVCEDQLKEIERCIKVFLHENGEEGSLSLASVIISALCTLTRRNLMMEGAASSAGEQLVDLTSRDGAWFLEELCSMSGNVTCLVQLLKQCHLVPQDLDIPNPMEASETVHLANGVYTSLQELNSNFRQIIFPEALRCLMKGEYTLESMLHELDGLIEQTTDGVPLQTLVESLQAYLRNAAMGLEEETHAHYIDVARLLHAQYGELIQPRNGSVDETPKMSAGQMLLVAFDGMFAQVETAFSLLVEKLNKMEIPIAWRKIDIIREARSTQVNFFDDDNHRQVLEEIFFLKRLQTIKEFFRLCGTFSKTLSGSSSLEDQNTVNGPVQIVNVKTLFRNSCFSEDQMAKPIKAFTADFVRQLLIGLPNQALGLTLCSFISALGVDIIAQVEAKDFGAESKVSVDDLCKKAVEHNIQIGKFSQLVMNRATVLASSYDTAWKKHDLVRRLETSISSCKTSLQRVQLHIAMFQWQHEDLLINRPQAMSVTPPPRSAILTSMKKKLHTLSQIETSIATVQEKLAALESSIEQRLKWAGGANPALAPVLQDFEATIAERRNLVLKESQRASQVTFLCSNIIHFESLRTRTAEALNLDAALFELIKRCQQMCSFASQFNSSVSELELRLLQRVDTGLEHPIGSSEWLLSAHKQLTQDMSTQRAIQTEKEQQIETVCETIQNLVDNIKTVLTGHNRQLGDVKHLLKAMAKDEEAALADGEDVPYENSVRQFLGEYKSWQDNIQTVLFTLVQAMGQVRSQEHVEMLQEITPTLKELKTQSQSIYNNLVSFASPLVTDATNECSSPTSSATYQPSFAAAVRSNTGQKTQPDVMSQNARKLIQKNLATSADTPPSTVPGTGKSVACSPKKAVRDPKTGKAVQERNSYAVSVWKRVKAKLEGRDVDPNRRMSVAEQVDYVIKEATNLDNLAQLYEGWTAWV
The target of test [2] is T2, Serine/threonine-protein kinase mTOR (Homo sapiens, UniProt P42345). Briefly: Inhibition of mTOR.
Test [3] concerns the target Phosphatidylinositol 4,5-bisphosphate 3-kinase catalytic subunit alpha isoform (Homo sapiens, UniProt P42336). Briefly: Inhibition of PI3Kalpha using diC8-tagged PIP2 as substrate after 30 to 60 mins by TAMRA-based fluorescence polarization assay.
Test [4] is filed under the species Homo sapiens. Briefly: Selectivity ratio of IC50 for mTOR to IC50 for human recombinant SMG1.
Test [5] has as its target Cyclin-dependent kinase 2 (Homo sapiens, UniProt P24941). Briefly: Inhibition of CDK2.
The target of test [6] is Phosphatidylinositol 4,5-bisphosphate 3-kinase catalytic subunit gamma isoform (Homo sapiens, UniProt P48736). Briefly: Inhibition of PI3Kgamma using diC8-tagged PIP2 as substrate after 30 to 60 mins by TAMRA-based fluorescence polarization assay.
Sequence of Phosphatidylinositol 4,5-bisphosphate 3-kinase catalytic subunit gamma isoform (P48736 whole entry, canonical isoform): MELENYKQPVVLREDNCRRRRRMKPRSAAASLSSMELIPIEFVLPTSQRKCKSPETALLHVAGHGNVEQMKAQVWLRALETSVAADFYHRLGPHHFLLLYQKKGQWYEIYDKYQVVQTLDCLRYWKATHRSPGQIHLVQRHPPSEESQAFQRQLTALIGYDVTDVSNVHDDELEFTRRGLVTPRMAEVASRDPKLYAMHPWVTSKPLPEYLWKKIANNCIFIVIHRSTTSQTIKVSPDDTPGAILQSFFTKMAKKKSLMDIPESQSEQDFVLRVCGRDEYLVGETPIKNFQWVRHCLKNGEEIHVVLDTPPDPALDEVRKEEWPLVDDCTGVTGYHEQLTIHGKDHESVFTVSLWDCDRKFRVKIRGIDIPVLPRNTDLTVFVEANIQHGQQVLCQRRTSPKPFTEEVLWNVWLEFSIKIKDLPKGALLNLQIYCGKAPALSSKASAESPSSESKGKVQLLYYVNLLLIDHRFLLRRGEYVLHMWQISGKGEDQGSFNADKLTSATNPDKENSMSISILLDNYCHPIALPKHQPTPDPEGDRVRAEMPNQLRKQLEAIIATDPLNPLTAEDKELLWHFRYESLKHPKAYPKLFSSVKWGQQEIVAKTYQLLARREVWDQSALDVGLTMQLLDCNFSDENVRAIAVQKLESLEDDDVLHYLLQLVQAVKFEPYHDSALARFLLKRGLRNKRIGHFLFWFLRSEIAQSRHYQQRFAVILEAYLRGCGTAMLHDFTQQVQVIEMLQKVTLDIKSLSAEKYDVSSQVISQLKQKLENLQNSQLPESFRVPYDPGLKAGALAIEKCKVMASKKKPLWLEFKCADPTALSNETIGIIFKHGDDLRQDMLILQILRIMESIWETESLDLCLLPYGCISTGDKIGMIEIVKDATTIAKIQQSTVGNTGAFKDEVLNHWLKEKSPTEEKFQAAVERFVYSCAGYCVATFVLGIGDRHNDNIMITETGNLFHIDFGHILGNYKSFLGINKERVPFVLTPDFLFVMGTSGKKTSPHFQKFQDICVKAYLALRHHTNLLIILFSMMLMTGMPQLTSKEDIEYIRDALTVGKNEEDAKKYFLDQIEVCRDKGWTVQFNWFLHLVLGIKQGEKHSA
The target of test [7] is Cyclin-dependent kinase 1 (Homo sapiens, UniProt P06493). Briefly: Inhibition of CDK1.
Sequence of Cyclin-dependent kinase 1 (P06493 whole entry): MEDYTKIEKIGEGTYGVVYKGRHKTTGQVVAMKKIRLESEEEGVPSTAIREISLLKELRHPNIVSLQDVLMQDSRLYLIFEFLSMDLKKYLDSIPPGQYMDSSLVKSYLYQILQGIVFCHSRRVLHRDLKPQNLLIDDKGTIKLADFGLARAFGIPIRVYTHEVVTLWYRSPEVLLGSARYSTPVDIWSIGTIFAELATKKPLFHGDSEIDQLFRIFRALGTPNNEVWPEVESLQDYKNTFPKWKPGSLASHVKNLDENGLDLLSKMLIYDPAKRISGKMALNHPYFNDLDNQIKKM
In test [8] the target is Glycogen synthase kinase-3 beta (Homo sapiens, UniProt P49841). Briefly: Inhibition of GSK3beta.
Test [9] addresses T1, Serine/threonine-protein kinase SMG1. Briefly: Inhibition of SMG1 in human MDA-MB-361 cells assessed as inhibition of UPF1 phosphorylation at 1 uM after 6 hrs by immunostaining analysis. Type of test: cell-based.
Test [10] concerns MDA-MB-468. Briefly: Cytotoxicity against human MDA-MB-468 cells. It is filed as functional, cell-based.
Test [11] deals with Glycogen synthase kinase-3 alpha (Homo sapiens, UniProt P49840). Briefly: Inhibition of GSK3alpha.
Test [12] concerns MDA-MB-361. Briefly: Inhibition of PI3K in human MDA-MB-361 cells assessed as inhibition of AKT phosphorylation at 0.3 to 3 uM after 6 hrs by immunostaining analysis. Type of test: cell-based.
In test [13] the target is T2, Serine/threonine-protein kinase mTOR. Briefly: Inhibition of mTOR in human MDA-MB-361 cells assessed as inhibition of p70S6K phosphorylation at 0.3 to 3 uM after 6 hrs by immunostaining analysis. It is filed as cell-based.
The target in test [14] is T1, Serine/threonine-protein kinase SMG1. Briefly: Inhibition of SMG1 in human MDA-MB-361 cells assessed as inhibition of UPF1 phosphorylation at 0.3 uM after 6 hrs by immunostaining analysis. It is filed as cell-based.
The target is the same in test [15]. Briefly: Inhibition of SMG1 in human MDA-MB-361 cells assessed as inhibition of UPF1 phosphorylation after 6 hrs by immunostaining analysis. Type of test: cell-based.
Test [16] has the same target. Briefly: Inhibition of SMG1 in human MDA-MB-361 cells assessed as inhibition of UPF1 phosphorylation up to 3 uM after 6 hrs by immunostaining analysis. Type of test: cell-based.

On to `NS(=O)(=O)c1ccc(Nc2nccc(-c3cccc(C(=O)N4CCCCC4)c3)n2)cc1`, for which the IC50 in test [1] worked out at 450 nM; in test [2], 890 nM.

For `CNC(=O)Nc1ccc(-c2cc(-c3ccnc(Nc4ccc(C)c(S(=O)(=O)NC)c4)n3)ccn2)cc1`, the IC50 is under 0.05 nM in test [1]; 43 nM in [3]; 110 nM in test [5]; 18 nM in [2]; 63 nM in test [6]; 230 nM in [7]. The Ratio IC50 in test [4] is over 350.

On to `CCN(CC)S(=O)(=O)c1cc(Nc2nccc(-c3ccnc(-c4ccc(NC(=O)NC)cc4)c3)n2)ccc1C`, for which the IC50 in test [1] was determined as 0.2 nM; in test [3], 130 nM; in test [5] it was 3000 nM; in test [2] it was 88 nM; in test [6] it was 93 nM; in test [7], 14000 nM. For the same compound, the Ratio IC50 in test [4] was found to be 440.

For `c1ccc(Nc2nccc(-c3ccnc(N4CCOCC4)c3)n2)cc1`, the IC50 in [1] was 1500 nM; in test [2], over 4000 nM. Besides, the Ratio IC50 in test [4] was over 3.

Regarding `CN1CCN(c2cc(-c3ccnc(Nc4cccc(S(N)(=O)=O)c4)n3)ccn2)CC1`, the IC50 in test [1] came to 310 nM; in [2] it was 3300 nM. Further, the Ratio IC50 in test [4] amounted to 10.

For the compound `CCN(CC)S(=O)(=O)c1cc(Nc2nccc(-c3ccnc(-c4ccc(NC(=O)NC)cc4)c3)n2)ccc1Cl`, the IC50 in test [8] is 330 nM; in [1] it was 0.11 nM; in test [3] it was 92 nM; in [10], 75 nM; in [11] it was 260 nM; in test [5], 7100 nM. The results for the IC50 in test [2], in [6] and in test [7] were 50 nM, 60 nM and 32000 nM, respectively. The Ratio IC50 in test [4] was 455. In addition, the inhibition result in test [9] and in test [14] was “Active” each time. The inhibition entry in test [12] and in [13] was “inactive” in each case.

For `Clc1ccc(Nc2nccc(-c3ccnc(N4CCOCC4)c3)n2)cc1`, the values for the IC50 in test [1] and in [2] were 1000 nM and over 20000 nM, respectively. For the same compound, the Ratio IC50 in test [4] was over 19.

Regarding `OCCCNc1cc(-c2ccnc(Nc3cccc(Cl)c3)n2)ccn1`, the IC50 in [1] is 110 nM; in [5], under 5.2 nM; in test [2] it was 800 nM; in test [7], under 5.2 nM. In test [4], the Ratio IC50 was found to be 8.

Regarding `NS(=O)(=O)c1cccc(Nc2nccc(-c3ccnc(NCCCO)c3)n2)c1`, the IC50 came out at 22 nM in [1], 6.7 nM in test [5], 320 nM in [2] and 12 nM in [7]. Besides, in [4], the Ratio IC50 amounted to 15.

In the case of `NS(=O)(=O)c1cccc(Nc2nccc(-c3ccnc(N4CCCCC4)c3)n2)c1`, the IC50 in test [1] stood at 3 nM; in test [5], 16 nM; in test [2], 140 nM; in test [7], 36 nM. In test [4], the Ratio IC50 came out at 47. The inhibition result in test [12] and in test [13] was “Active” in each case. For the same compound, the inhibition result in test [15] was “Dose-dependent effect”.

`N#Cc1cccc(Nc2nccc(-c3ccnc(N4CCOCC4)c3)n2)c1`: the IC50 in test [1] is 80 nM; in test [2], over 4000 nM. The Ratio IC50 in test [4] was over 50.

For `CNC(=O)Nc1ccc(-c2cc(-c3ccnc(Nc4ccc(C)c(S(N)(=O)=O)c4)n3)ccn2)cc1`, the IC50 is under 0.05 nM in test [1] and 16 nM in test [2]. Further, the Ratio IC50 in test [4] is over 320.

For `COc1cccc(Nc2nccc(-c3ccnc(N4CCOCC4)c3)n2)c1`, the IC50 worked out at 1100 nM in test [1] and 4600 nM in test [2]. For the same compound, the Ratio IC50 in test [4] stood at 4.

Consider `NS(=O)(=O)c1cccc(Nc2nccc(-c3ccnc(N4C5CCC4COC5)c3)n2)c1`, for which the IC50 in test [1] is 25 nM; in test [5], 31 nM; in test [2], 3200 nM; in test [7] it was 100 nM. Also, the Ratio IC50 in test [4] was 130.

Turning to `CNC(=O)Nc1ccc(-c2cc(-c3ccnc(Nc4ccc(Cl)c(S(=O)(=O)NC)c4)n3)ccn2)cc1`, the IC50 was under 0.05 nM in test [1], 140 nM in test [5], 7.7 nM in [2] and 320 nM in [7]. The Ratio IC50 in test [4] is over 154.

On to `NS(=O)(=O)c1ccc(Nc2nccc(-c3ccnc(N4CCOCC4)c3)n2)cc1`, for which the results for the IC50 in [1] and in test [2] were 370 nM and over 20000 nM, respectively. In addition, the Ratio IC50 in test [4] is over 54. Moreover, the inhibition result in test [16] is “inactive”.

Regarding `CNC(=O)Nc1ccc(-c2cc(-c3ccnc(Nc4ccc(C)c(S(=O)(=O)N(C)C)c4)n3)ccn2)cc1`, the IC50 is under 0.05 nM in [1]; 61 nM in [3]; 460 nM in test [5]; 45 nM in test [2]; 72 nM in test [6]; 1200 nM in [7]. In test [4], the Ratio IC50 is over 900.

As to `NS(=O)(=O)c1cccc(Nc2nccc(-c3ccnc(N4CC5CCC(C4)O5)c3)n2)c1`, the IC50 in [1] worked out at 6 nM; in test [5], 21 nM; in [2], 200 nM; in [7], 48 nM. The Ratio IC50 in test [4] was 33.

For the compound `Clc1cccc(Nc2nccc(-c3ccnc(N4CCOCC4)c3)n2)c1`, the IC50 is 280 nM in [1], 8.9 nM in [5], over 20000 nM in test [2] and 35 nM in test [7]. Besides, the Ratio IC50 in test [4] was over 71.

For the compound `CNC(=O)Nc1ccc(-c2cc(-c3ccnc(Nc4ccc(Cl)c(S(=O)(=O)N(C)C)c4)n3)ccn2)cc1`, the IC50 in test [1] was under 0.05 nM; in test [3], 33 nM; in [5], 520 nM; in test [2], 12 nM; in [6] it was 54 nM; in [7], 1400 nM. The Ratio IC50 in [4] is over 244.

As to `CNC(=O)Nc1ccc(-c2cc(-c3ccnc(Nc4cccc(S(N)(=O)=O)c4)n3)ccn2)cc1`, the IC50 in test [1] is under 0.05 nM; in test [3] it was 44 nM; in [5] it was 23 nM; in [2], 18 nM; in test [6], 91 nM; in [7], 62 nM. Further, the Ratio IC50 in test [4] was over 360.

For `Cc1cccc(Nc2nccc(-c3ccnc(N4CCOCC4)c3)n2)c1`, the half-maximal inhibitory concentration (IC50) in test [1] is 330 nM; in [5], 46 nM; in test [2] it was over 20000 nM; in test [7] it was 100 nM. Further, the Ratio IC50 in test [4] is over 61.

As to `CNC(=O)Nc1ccc(-c2cc(-c3ccnc(Nc4cccc(S(=O)(=O)NC)c4)n3)ccn2)cc1`, the IC50 in test [1] came to 0.1 nM; in test [3], 80 nM; in [5] it was 100 nM; in [2] it was 15 nM; in test [6], 82 nM; in test [7], 210 nM. Also, the Ratio IC50 in [4] is over 150.

On to `CCN(CC)c1cc(-c2ccnc(Nc3cccc(S(N)(=O)=O)c3)n2)ccn1`, for which the IC50 is 3 nM in test [1], under 5.2 nM in test [5], 110 nM in test [2] and 7.4 nM in test [7]. Moreover, the Ratio IC50 in test [4] amounted to 37.

For the compound `NS(=O)(=O)c1cccc(Nc2nccc(-c3ccnc(N4CCOCC4)c3)n2)c1`, the IC50 was 11 nM in [1], 19 nM in test [5], 610 nM in test [2] and 55 nM in [7]. For the same compound, in test [4], the Ratio IC50 stood at 56.

For the compound `FC(F)(F)c1cccc(Nc2nccc(-c3ccnc(N4CCOCC4)c3)n2)c1`, the IC50 in test [1] was determined as 250 nM; in test [2], 1700 nM. Besides, in test [4], the Ratio IC50 is 7.

For `CCN(CC)S(=O)(=O)c1cccc(Nc2nccc(-c3ccnc(-c4ccc(NC(=O)NC)cc4)c3)n2)c1`, the IC50 in test [1] was determined as 0.2 nM; in test [3] it was 78 nM; in test [5], 560 nM; in test [2], 25 nM; in test [6], 59 nM; in test [7], 3200 nM. Besides, the Ratio IC50 in [4] is 125.
